6 molecules from patent US8486962B2, “Antifungal agents” (F2G Ltd., priority 2005, dated 2013) can be followed below.

Each structure is given as a SMILES string. Values after ≈ are worked out from the molar mass of the structure shown. Like-named read-outs stand apart in the source and are kept apart here.

For test [1], the system named is Aspergillus flavus. The test can be described thus: MIC, YAG medium, Aspergillus flavus. The conditions noted are these: Aspergillus flavus, YAG medium. In kind it is cell-based. In a few lines: (§1)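 Yeast: RPMI + 2% glucose + 0.135M MOPS pH7.0, 1-2×10^3 cfu/ml, 35° C 24-48 h, OD485, MIC at >80% inhib. Aspergillus: YAG (1% glucose, 1% NH4Cl, 0.5% yeast extract), spores 1-2×10^4 cfu/ml, 35° C 24 h, MIC at >70% inhib. Range 50-0.05 mg/L.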

The subject of test [2] is Aspergillus fumigatus AF293. Description: MIC, YAG medium, Aspergillus fumigatus AF293. In kind it is cell-based. Conditions: Aspergillus fumigatus, AF293; YAG medium; read-out: MIC A Fum. 293. In short, it runs like this:
as §1

Test [3] deals with Aspergillus niger. The test can be described thus: MIC, YAG medium, Aspergillus niger. In kind it is cell-based. The conditions noted are these: Aspergillus niger, YAG medium. In short, it runs like this:
as §1

Test [4] relates to Aspergillus terreus. Description: MIC, YAG medium, Aspergillus terreus. In kind it is cell-based. Conditions: Aspergillus terreus, YAG medium. In a few lines: as §1
The test system of test [5] is Aspergillus fumigatus AF210. Description: MIC, YAG medium, Aspergillus fumigatus AF210. The test is classed as cell-based. The conditions noted are these: Aspergillus fumigatus, AF210; YAG medium; read-out: MIC A Fum. 210. In a few lines: as §1
The subject of test [6] is A Terreus 49. The test can be described thus: MIC, YAG medium, A Terreus 49. In kind it is cell-based, Aspergillus terreus. Conditions: Aspergillus terreus; YAG medium; read-out: MIC A Terreus 49. In a few lines: as §1

What is called MIC is the lowest concentration that inhibits growth of the organism. Regarding `O=C(O)COc1cccc(NC(=O)C(=O)c2c(-c3ccccc3)cc3ccccn23)c1` [Example 294, {3-[2-Oxo-2-(2-phenyl-indolizin-3-yl)-acetylamino]-phenoxy}-acetic acid], the MIC in test [1] (read-out: MIC A Flavus 01) was 25 µg/mL (≈ 60.3 µM); in test [2], 25 µg/mL (≈ 60.3 µM); in test [3] (read-out: MIC A Niger 1), 50 µg/mL (≈ 121 µM); in test [4] (read-out: MIC A Terreus 4), 50 µg/mL (≈ 121 µM); in test [5], over 50 µg/mL; in test [6], 25 µg/mL (≈ 60.3 µM).

For `C[S+]1CCN(c2ccc(NC(=O)C(=O)c3c(-c4ccccc4)cc4ccccn34)cc2)CC1.[I-]` [Example 299, 1-Methyl-4-{4-[2-oxo-2-(2-phenyl-indolizin-3-yl)-acetylamino]-phenyl}-thiomorpholin-1-ium iodide], the MIC turned out to be 3.1 µg/mL in test [1] (read-out: MIC A Flavus 01); 6.25 µg/mL in test [2]; 12.5 µg/mL in test [3] (read-out: MIC A Niger 1); 3.1 µg/mL in test [4] (read-out: MIC A Terreus 4); 6.25 µg/mL in test [5]; 1.6 µg/mL in test [6].

With `O=C(Nc1ccc(C(F)(F)F)cc1)C(=O)c1c(-c2ccccc2)cc2ccccn12` [Example 304, 2-Oxo-2-(2-phenyl-indolizin-3-yl)-N-(4-trifluoromethyl-phenyl)-acetamide], the MIC amounted to 0.031 µg/mL (≈ 0.0759 µM) in test [1] (read-out: MIC A Flavus); 0.25 µg/mL (≈ 0.612 µM) in test [2]; 0.015 µg/mL (≈ 0.0367 µM) in test [3] (read-out: MIC A Niger); 0.015 µg/mL (≈ 0.0367 µM) in test [4] (read-out: MIC A Terreus); 0.25 µg/mL (≈ 0.612 µM) in test [5]; 0.015 µg/mL (≈ 0.0367 µM) in test [6].

As to `O=C(Nc1ccc(Cl)cc1Cl)C(=O)c1c(-c2ccccc2)cc2ccccn12` [Example 305, N-(2,4-Dichloro-phenyl)-2-oxo-2-(2-phenyl-indolizin-3-yl)-acetamide], the MIC in test [1] (read-out: MIC A Flavus) was found to be 0.062 µg/mL (≈ 0.151 µM); in test [2] it was 0.5 µg/mL (≈ 1.22 µM); in test [3] (read-out: MIC A Niger), 0.015 µg/mL (≈ 0.0367 µM); in test [4] (read-out: MIC A Terreus), 0.031 µg/mL (≈ 0.0757 µM); in test [5] it was 0.5 µg/mL (≈ 1.22 µM); in test [6], 0.015 µg/mL (≈ 0.0367 µM).

As for `O=C(Nc1cccc(C(F)(F)F)c1)C(=O)c1c(-c2ccccc2)cc2ccccn12` [Example 306, 2-Oxo-2-(2-phenyl-indolizin-3-yl)-N-(3-trifluoromethyl-phenyl)-acetamide], the MIC was found to be 0.008 µg/mL (≈ 0.0196 µM) in test [1] (read-out: MIC A Flavus); 0.12 µg/mL (≈ 0.294 µM) in test [2]; 0.015 µg/mL (≈ 0.0367 µM) in test [3] (read-out: MIC A Niger); 0.004 µg/mL (≈ 0.00979 µM) in test [4] (read-out: MIC A Terreus); 0.062 µg/mL (≈ 0.152 µM) in test [5]; 0.002 µg/mL (≈ 0.0049 µM) in test [6].

For `O=C(Nc1ccc(N2CCCCC2)cc1)C(=O)c1c(-c2ccccc2)cc2ccccn12` [Example 307, 2-Oxo-2-(2-phenyl-indolizin-3-yl)-N-(4-piperidin-1-yl-phenyl)-acetamide], the MIC in test [1] (read-out: MIC A Flavus) was found to be 0.008 µg/mL (≈ 0.0189 µM); in test [2] it was 0.008 µg/mL (≈ 0.0189 µM); in test [3] (read-out: MIC A Niger) it was 0.008 µg/mL (≈ 0.0189 µM); in test [4] (read-out: MIC A Terreus), 0.002 µg/mL (≈ 0.00472 µM); in test [5] it was 0.05 µg/mL (≈ 0.118 µM); in test [6], 0.001 µg/mL (≈ 0.00236 µM).
